Values joined by “and” are separate entries in the source; they are usually repeats but may differ in a detail not shown here. Equal values may be shown once. Read-outs that look alike come from different tables or passages of the source.
Legend:
Type in all cases: in vivo
Durum wheat = assay: Post-emergence test in barley and wheat: durum wheat
Method: (§1) To produce a suitable preparation of active compound, 1 part by weight of active compound is mixed with the stated amount of solvent, the stated amount of emulsifier is added and the concentrate is diluted with water to the desired concentration. Formulated products are dissolved in water and then diluted with water to the desired concentration.
(§2) The solutions of the other mixing components (active compounds or safeners) are prepared analogously. The separately prepared solutions of the various mixing components are then combined and, if appropriate, additional substances (formulation auxiliaries, additives, etc.) are added and, if appropriate, water is added to prepare the desired dilution.
(§3) After three weeks, the degree of damage to the plants is rated in % damage in comparison to the development of the untreated control. The figures denote
(§4) 0%=no effect/no damage (like untreated control)

Winter barley = assay: Post-emergence test in barley and wheat: winter barley; details: for damage, Winter barley (21 days): 0.1% Renex-36
Method: as §1, §2, §4

Summer wheat = assay: Post-emergence test in barley and wheat: summer wheat; details: for damage, Summer wheat (5 days) / damage, Summer wheat (21 days) / damage, Summer wheat (22 days): 0.1% Renex-36
Method: as §1, §2, §4

maize = assay: Pre-emergence test in maize (crop plant compatibility)
Method: (§5) Solvent: 2 to 3 parts by weight of acetone or N,N-dimethyl-formamide
(§6) Emulsifier: 1 part by weight of alkylaryl polyglycol ether
as §1, §2
(§7) Seeds of the test plants are sown in standard soil. After 24 hours, the soil is sprayed with the preparation of active compound such that the particular amount of active compound desired in each case is applied per unit area. The concentration of active compound in the spray liquor is chosen such that the particular amount of active compound desired in each case is applied in 500 litres of water per hectare. The containers with the test plants are kept in a greenhouse at controlled temperature and controlled illumination until evaluation.
as §4

Winter wheat = assay: Post-emergence test in barley and wheat: winter wheat
Method: as §1, §2, §3, §4

Stellaria = assay: Pre-emergence test (herbicidal action, Colby): Stellaria
Ipomoea = assay: Pre-emergence test (herbicidal action, Colby): Ipomoea; details: 60 g of a.i./ha
Abutilon = assay: Pre-emergence test (herbicidal action, Colby): Abutilon
Datura = assay: Pre-emergence test (herbicidal action, Colby): Datura
Matricaria = assay: Pre-emergence test (herbicidal action, Colby): Matricaria
Cyperus = assay: Pre-emergence test (herbicidal action, Colby): Cyperus
Polygonum = assay: Pre-emergence test (herbicidal action, Colby): Polygonum
Digitaria = assay: Pre-emergence test (herbicidal action, Colby): Digitaria
Setaria = assay: Pre-emergence test (herbicidal action, Colby): Setaria; details: 250 g of a.i./ha
weeds = assay: Pre-emergence test (herbicidal action against weeds, Colby)
Source text: (§8) The expected action for a given combination of two herbicides can be calculated as follows (cf. COLBY, S. R.: “Calculating synergistic and antagonistic responses of herbicide combinations”, Weeds 15, Pages 20-22, 1967):
(§9) If the actual damage exceeds the calculated value, the combination has a superadditive effect, that is to say a synergistic effect.
The theoretically expected activity for a given combination of three herbicides can likewise be found in the literature mentioned above.
as §5, §6, §1, §2, §7, §3, §4

Alopecurus = assay: Pre-emergence test (herbicidal action, Colby): Alopecurus
Echinochloa = assay: Pre-emergence test (herbicidal action, Colby): Echinochloa; details: 250 g of a.i./ha
Galium = assay: Post-emergence test (herbicidal action, Colby): Galium; details: 125 g of a.i./ha
Veronica = assay: Post-emergence test (herbicidal action, Colby): Veronica; details: single active compound at 8 g of a.i./ha
Source text: as §8, §9, §1, §2, §3, §4

Solanum = assay: Post-emergence test (herbicidal action, Colby): Solanum; details: single active compound at 15 g of a.i./ha
Source text: as §8, §9, §1, §2, §3, §4

CCS(=O)(=O)Nc1cc(-n2c(=O)cc(C(F)(F)F)n(C)c2=O)c(F)cc1C(N)=S [I-6, 2-(ethylsulphonylamino)-5-fluoro-4-[3-methyl-2,6-dioxo-4-trifluoromethyl-3,6-dihydro-1(2H)-pyrimidinyl]-benzenecarbothioamide]
Durum wheat (5 days) (Durum wheat; 15 g of a.i./ha): 20%
Durum wheat (21 days) (Durum wheat; 15 g of a.i./ha): 20%
damage, Durum wheat (5 days) (Durum wheat; 15 g of a.i./ha, 0.1% Renex-36): 20%
Durum wheat (5 days) (Durum wheat; 30 g of a.i./ha): 30%
Durum wheat (21 days) (Durum wheat; 30 g of a.i./ha): 20%
damage, Durum wheat (5 days) (Durum wheat; 30 g of a.i./ha, 0.1% Renex-36): 30%
damage, Durum wheat (22 days) (Durum wheat; 30 g of a.i./ha, 22 days, 0.1% Renex-36): 20%
Winter barley (5 days) (Winter barley; 4 g of a.i./ha): 30%
Winter barley (21 days) (Winter barley; 4 g of a.i./ha): 50%
Winter barley (22 days) (Winter barley; 4 g of a.i./ha): 10%
Winter barley (5 days) (Winter barley; 8 g of a.i./ha): 40%
Winter barley (21 days) (Winter barley; 8 g of a.i./ha): 50%
Winter barley (22 days) (Winter barley; 8 g of a.i./ha): 20%
Winter barley (5 days) (Winter barley; 15 g of a.i./ha): 60% and 50%
damage, Winter barley (21 days) (Winter barley; 15 g of a.i./ha): 20%
Winter barley (5 days) (Winter barley; 30 g of a.i./ha): 50%
Winter barley (21 days) (Winter barley; 30 g of a.i./ha): 20%
damage, Winter barley (21 days) (Winter barley; 30 g of a.i./ha): 30%
Summer wheat (5 days) (Summer wheat; 15 g of a.i./ha): 40%
Summer wheat (21 days) (Summer wheat; 15 g of a.i./ha): 30%
damage, Summer wheat (5 days) (Summer wheat; 15 g of a.i./ha): 50%
damage, Summer wheat (21 days) (Summer wheat; 15 g of a.i./ha): 20%
damage, Summer wheat (22 days) (Summer wheat; 15 g of a.i./ha): 20%
Summer wheat (5 days) (Summer wheat; 30 g of a.i./ha): 50%
Summer wheat (21 days) (Summer wheat; 30 g of a.i./ha): 40%
damage, Summer wheat (5 days) (Summer wheat; 30 g of a.i./ha): 60%
damage, Summer wheat (21 days) (Summer wheat; 30 g of a.i./ha): 30%
damage, Summer wheat (22 days) (Summer wheat; 30 g of a.i./ha): 30%
Maize (7 days) (maize; Table A30, 60 g of a.i./ha): 30%
Maize (7 days) (maize; Table A30, 90 g of a.i./ha): 60%
Maize (12 days) (maize; Table A30, 90 g of a.i./ha): 60%
Maize (21 days) (maize; Table A30, 90 g of a.i./ha): 30%
Winter wheat (5 days) (Winter wheat; 4 g of a.i./ha): 20%
Winter wheat (20 days) (Winter wheat; 4 g of a.i./ha): 10%
Winter wheat (22 days) (Winter wheat; 4 g of a.i./ha): 20%
Winter wheat (5 days) (Winter wheat; 8 g of a.i./ha): 30%
Winter wheat (20 days) (Winter wheat; 8 g of a.i./ha): 10%
Winter wheat (22 days) (Winter wheat; 8 g of a.i./ha): 20%
Winter wheat (5 days) (Winter wheat; 15 g of a.i./ha): 30%
Winter wheat (20 days) (Winter wheat; 15 g of a.i./ha): 20%
damage, Winter wheat (21 days) (Winter wheat; 15 g of a.i./ha, 21 days, 0.1% Renex-36): 10%

CS(=O)(=O)c1ccc(C(=O)C2C(=O)CCCC2=O)c(Cl)c1 [sulcotrione, 2-(2-chloro-4-methylsulphonyl-benzoyl)-cyclohexane-1,3-dione]
Stellaria (Stellaria; 60 g of a.i./ha): 80%
Ipomoea (Ipomoea): 80%
pest or weed control at 30 g/ha (Abutilon; Abutilon, read-out: Abutilon): 70%
pest or weed control at 60 g/ha (Abutilon; Abutilon, read-out: Abutilon): 80%
Datura (Datura; 30 g of a.i./ha): 50%
Matricaria (Matricaria; 30 g of a.i./ha): 40%
Cyperus (Cyperus; 30 g of a.i./ha): 90%

CCOCN(C(=O)CCl)c1c(C)cccc1CC [acetochlor, 2-chloro-N-(ethoxymethyl)-N-(2-ethyl-6-methyl-phenyl)-acetamide]
Polygonum (Polygonum; 125 g of a.i./ha): 30%
Polygonum (Polygonum; 250 g of a.i./ha): 30%
Digitaria (Digitaria; 125 g of a.i./ha): 80%
Stellaria (Stellaria; 125 g of a.i./ha): 80%
Setaria (Setaria): 80%
Chenopodium (pre-emergence test) (weeds; Table A20, 125 g of a.i./ha): 30
Datura (pre-emergence test) (weeds; Table A20, 125 g of a.i./ha): 30
Galium (pre-emergence test) (weeds; Table A20, 125 g of a.i./ha): 0
Ipomoea (pre-emergence test) (weeds; Table A20, 125 g of a.i./ha): 0
Datura (pre-emergence test) (weeds; Table A20, 250 g of a.i./ha): 50
Galium (pre-emergence test) (weeds; Table A20, 250 g of a.i./ha): 20
Ipomoea (pre-emergence test) (weeds; Table A20, 250 g of a.i./ha): 20
Lolium (pre-emergence test) (weeds; Table A20, 250 g of a.i./ha): 90
pest or weed control at 125 g/ha (Abutilon; 125 g of a.i./ha): 0%
pest or weed control at 250 g/ha (Abutilon; 250 g of a.i./ha): 40%
Matricaria (Matricaria; 125 g of a.i./ha): 90%
Alopecurus (Alopecurus; 125 g of a.i./ha): 30%
Echinochloa (Echinochloa): 80%
Cyperus (Cyperus; 125 g of a.i./ha): 60%
Cyperus (Cyperus; 250 g of a.i./ha): 60%

CCS(=O)(=O)N(C(=O)c1cccs1)c1cc(-n2c(=O)cc(C(F)(F)F)n(N)c2=O)c(F)cc1C#N [I-5, N-[5-(3-amino-2,6-dioxo-4-trifluoromethyl-3,6-dihydro-1(2H)-pyrimidinyl)-2-cyano-4-fluoro-phenyl]-N-(2-thienyl-carbonyl)-1-ethanesulphonamide]
Maize (7 days) (maize; Table A32, 60 g of a.i./ha): 20%
Maize (12 days) (maize; Table A32, 60 g of a.i./ha): 30%
Maize (21 days) (maize; Table A32, 60 g of a.i./ha): 18%
Maize (7 days) (maize; Table A32, 90 g of a.i./ha): 60%
Maize (12 days) (maize; Table A32, 90 g of a.i./ha): 70%
Maize (21 days) (maize; Table A32, 90 g of a.i./ha): 64%

CC(C)N.O=C(O)CNCP(=O)(O)O [glyphosate-isopropylammonium, N-phosphonomethyl-glycine (isopropylammonium salt)]
Galium (Galium): 0%

COCc1cnc(C2=NC(C)(C(C)C)C(=O)N2)c(C(=O)O)c1 (stereo not drawn) [imazamox, 2-(4,5-dihydro-4-methyl-4-isopropyl-5-oxo-1H-imidazol-2-yl)-5-methoxymethyl-pyridine-3-carboxylic acid]
damage, Veronica (Veronica): 0%
damage, Solanum (Solanum): 0%

CCNc1nc(Cl)nc(NC(C)C)n1 [atrazine, 6-chloro-4-ethylamino-2-isopropylamino-1,3,5-triazine]
Avena (pre-emergence test) (weeds; Table A25, 500 g of a.i./ha): 80
Bromus (pre-emergence test) (weeds; Table A25, 500 g of a.i./ha): 70
Cyperus (pre-emergence test) (weeds; Table A25, 500 g of a.i./ha): 50
Lolium (pre-emergence test) (weeds; Table A25, 500 g of a.i./ha): 90

COc1cc(OC)nc(NC(=O)NS(=O)(=O)c2cc(NC=O)ccc2C(=O)N(C)C)n1 [foramsulfuron, 2-[[[[(4,6-dimethoxy-2-pyrimidinyl)-amino]-carbonyl]-amino]-sulphonyl]-4-formylamino-N,N-dimethyl-benzamide]
Cassia (pre-emergence test) (weeds; Table A27, 15 g of a.i./ha): 50
Abutilon (pre-emergence test) (weeds; Table A27, 30 g of a.i./ha): 50
Polygonum (pre-emergence test) (weeds; Table A27, 30 g of a.i./ha): 40

CCCN(CCC)c1c([N+](=O)[O-])cc(C(F)(F)F)cc1[N+](=O)[O-] [trifluralin, 1-amino-2,6-dinitro-N,N-di-propyl-4-trifluoromethyl-benzene]
Cassia (pre-emergence test) (weeds; Table A24, 250 g of a.i./ha): 80
Lolium (pre-emergence test) (weeds; Table A24, 250 g of a.i./ha): 95
Setaria (pre-emergence test) (weeds; Table A24, 250 g of a.i./ha): 95
Echinochloa (pre-emergence test) (weeds; Table A24, 500 g of a.i./ha): 95
Veronica (pre-emergence test) (weeds; Table A24, 500 g of a.i./ha): 95

CS(=O)(=O)c1cc(C(F)(F)F)ccc1C(=O)c1cnoc1C1CC1 [isoxaflutole, (5-cyclopropyl-isoxazol-4-yl)-(2-methylsulphonyl-4-trifluoromethyl-phenyl)-methanone]
Polygonum (Polygonum; 30 g of a.i./ha): 0%
Digitaria (Digitaria; 30 g of a.i./ha): 90%
Avena (pre-emergence test) (weeds; Table A26, 30 g of a.i./ha): 30
Cassia (pre-emergence test) (weeds; Table A26, 30 g of a.i./ha): 70
Digitaria (pre-emergence test) (weeds; Table A26, 30 g of a.i./ha): 80
Echinochloa (pre-emergence test) (weeds; Table A26, 30 g of a.i./ha): 30
Lolium (pre-emergence test) (weeds; Table A26, 30 g of a.i./ha): 30
Matricaria (pre-emergence test) (weeds; Table A26, 30 g of a.i./ha): 20
Setaria (pre-emergence test) (weeds; Table A26, 30 g of a.i./ha): 30
Echinochloa (pre-emergence test) (weeds; Table A26, 60 g of a.i./ha): 40
Lolium (pre-emergence test) (weeds; Table A26, 60 g of a.i./ha): 50
Matricaria (pre-emergence test) (weeds; Table A26, 60 g of a.i./ha): 40
Setaria (pre-emergence test) (weeds; Table A26, 60 g of a.i./ha): 30
pest or weed control at 30 g/ha (Abutilon; 30 g of a.i./ha, read-out: Abutilon): 80%
Datura (Datura; 60 g of a.i./ha): 90%
Alopecurus (Alopecurus; 60 g of a.i./ha): 40%

From US6734139B1, “N-aryl-uracile-based herbicides” (priority 1999, dated 2004)
